Reference: patent US9539323B2, “Methods and compositions for malic enzyme 2 (ME2) as a target for cancer therapy” (Beth Israel Deaconess Medical Center, Inc., priority 2010, dated 2017)

How the values were obtained:
Format in all cases: cell-based, human
K562 cells [1] = test: Cell death assessed by flow cytometry; settings: 72 h
Protocol: A: Cells were treated with different concentrations of amino-oxyacetate and expression levels of the erythroid marker glycophorin A (GPA) on the surface of K562 cells were assessed using a mouse FITC-conjugated anti-human glycophorin A antibody. Each histogram is representative of three experiments. B: K562 cells with or without ME2 knockdown were incubated with different concentrations of AOA for 72 h. Cell death was assessed by flow cytometry. Top: pLKO; Bottom: shME2-3. […] C: Cells were treated with different concentrations of malate and expression levels of the erythroid marker glycophorin A on the surface of K562 cells were assessed using a mouse FITC-conjugated anti-human glycophorin A antibody. Each histogram is representative of three experiments.
K562 cells with or without ME2 knockdown were incubated with 0.1 mM AOA plus 2 mM α-KG for 48 h. Cell death was assessed by flow cytometry. A: pLKO K562 cells without any treatment. B: pLKO K562 cells treated with 0.1 mM AOA for 48 h. C: pLKO K562 cells treated with 0.1 mM AOA combined with 2 mM α-KG.

K562 cells [2] = test: Erythroid differentiation assay (glycophorin A, CD10, benzidine hemoglobin staining); settings: for rescue of differentiation mediated by ME2 depletion: supplementation
Protocol: Erythroid differentiation assay: Induction of surface expression of the erythroid marker glycophorin A and CD10 was determined by indirect immunofluorescence and flow cytometry, as described previously by Hatzivassiliou et al., in Cancer Cell. 8: 311-321 (2005). In brief, K562 cells with or without ME2 knockdown were stained with a mouse FITC-conjugated anti-glycophorin A or CD10 antibody (Dako) at 1:100 dilution in medium plus 10% FCS for 30 min at 4° C. Control cells were stained with FITC-conjugated IgG. Cells expressing hemoglobin were determined by benzidine staining, as previously described by Park et al., in Cell Growth Differ. 12: 481-486 (2001). The benzidine dihydrochloride stock solution contained 0.2% w/v benzidine hydrochloride in 3% acetic acid. Cells (1×10^5) were washed twice in ice-cold PBS. The cell pellets were resuspended in ice-clod PBS. Before staining, 5 μl of 30% H2O2 was added to 1 ml of a stock solution of benzidine solution. The cell suspensions were mixed with the benzidine solution in a 1:1 ratio and counted in a hemocytometer after 30 min. Blue cells were considered to be positive for hemoglobin. The proportion of blue-stained cells was quantified under light microscopy. A total of 500 cells were counted for each sample in triplicate. Shown is the mean±SD of a representative experiment.

[3] = system: phospho-ERK1/2, phospho-AKT, GATA-1, vimentin; test: Western blot of signaling pathways, GATA-1 and vimentin in K562 cells; settings: K562, 10 μM
Protocol: K562 cells with or without ME2 knockdown were lysed with RIPA lysis buffer (50 mM Tris-HCl, pH 8.0, 150 mM NaCl, 1% Triton X-100, 1 mM EGTA) containing 1 mM PMSF and a protease inhibitor cocktail and subjected to centrifugation at 15,000×g for […] at 4° C. to remove debris. After lysis, equal aliquots of protein lysate were resolved by Western blotting. Western blots were probed with anti-phospho-ERK1/2, anti-ERK1, anti-p-AKT308, anti-AKT472, anti-AKT1/2, anti-GATA-1, anti-vimentin, and anti-β-tubulin. A: Phospho-ERK1/2 activity in ME2 knockdown K562 cells. B: Phospho-AKT detection in ME2 knockdown K562 cells. C: 10 μM PI3K inhibitor, LY294002, inhibits p-AKT activity. D: LY294002 rescue of differentiation in ME2 knockdown K562 cells. E: The effect of LY294002 on the proliferation of K562 cells with (third to sixth bars in graph) or without ME2 (first to second bars in graph) knockdown. F: The expression difference of GATA-1 and vimentin in ME2 knockdown cells. Data are representative of three independent experiments. […] Membranes were washed in PBS plus 0.1% Tween 20 and probed with anti-rabbit or anti-mouse HRP-conjugated secondary antibody (both at 1:10,000 dilution), and proteins were detected using the ECL Plus chemiluminescence detection reagent (Amersham Biosciences).

K562 cells [4] = test: Proliferation assay (Coulter counter); settings: for rescue of ME2 knockdown cell cycle phenotype (decreased proliferation): supplementation
Protocol: Proliferation assay: Control and ME2 deficient cell lines were plated in 6-well plate at a density of 1×10^5 cells/well and maintained at 37° C. in a 5% CO2 incubator. After 24, 72, 120 and 168 hours of initial plating, 0.5 ml cells were diluted into 10 ml of Hanks' buffer and counted by Coulter counter.

K562 cells [5] = test: Determination of cellular reactive oxygen species (CM-H2DCF-DA, MitoSOX); settings: ME2 knockdown K562 cells, 5.0 mM
Protocol: Determination of cellular reactive oxygen species (ROS): Intracellular ROS production was measured by staining with CM-H2DCFDA. CM-H2DCFDA is a cell-permeant indicator for ROS that is nonfluorescent until removal of the acetate groups by intracellular esterases and oxidation occurs within the cell. The procedure for measuring ROS was carried out as described in Trachootham et al., in Cancer Cell. 10: 241-252 (2006), with minor modifications. Briefly, K562 cells transduced with shRNA lentiviral particles or control vector were selected with puromycin for 2 weeks, […], followed by flow cytometry using a FACSCalibur equipped with CellQuest Pro software. Superoxide radicals (O2^−) were measured separately using the MitoSOX™ reagent according to the manufacturer's protocol (Invitrogen). In brief, cells with or without ME2 knockdown were incubated with 5 μM MitoSOX™ reagent for 10 minutes at 37° C., then washed three times and observed under a fluorescence microscope using the Rhodamine filter and Axiovision software for capturing images (Zeiss, Germany).

For NOCC(=O)O [AOA, amino-oxyacetate], which cell death (K562 cells [1]; K562 with ME2 silenced (shME2-3)) is on record?
Its cell death is “induced leukemia cell death (mainly apoptotic)”.

And the cell death (K562 cells [1]; wild type K562 (pLKO))?
The cell death was “induced leukemia cell death (mainly necrotic)”.

What about the “erythroid differentiation (glycophorin staining)” value (K562 cells [2]; K562, 0.2 to 0.8 mM in medium) of the same compound?
Its value is “could not induce erythroid differentiation”.

Which results are given for O=c1cc(N2CCOCC2)oc2c(-c3ccccc3)cccc12 [LY294002, 2-morpholin-4-yl-8-phenylchromen-4-one]?
p-AKT activity [3]: significantly inhibit p-AKT activity; rescue of proliferation inhibition (K562 cells [4]; ME2 knockdown K562 cells): does not rescue proliferation inhibition in ME2 knockdown cells as effectively; sensitivity of proliferation inhibition to LY294002 (K562 cells [4]; ME2 knockdown vs parental K562 cells): more sensitive; differentiation mediated by ME2 silencing (K562 cells [2]; ME2 knockdown K562 cells, 10 μM): rescues the differentiation

How did the “differentiation induced by ME2 depletion” value (K562 cells [2]; ME2 knockdown K562 cells, 5.0 mM) turn out when CC(=O)N[C@@H](CS)C(=O)O [NAC, N-acetyl cysteine] was run?
The value was “without affecting differentiation”.

What about the “endogenous ROS” value (K562 cells [5]) of the same compound?
The value was “completely inhibited”.

Which results are given for Nc1ccn([C@@H]2O[C@H](CO)[C@@H](O)[C@H]2O)c(=O)n1 [cytidine]?
rescue of ME2 knockdown cell cycle phenotype (decreased proliferation) (K562 cells [4]; ME2 knockdown K562 cells): nor were we able to rescue; rescue of differentiation mediated by ME2 depletion (K562 cells [2]; ME2 knockdown K562 cells): could not rescue the differentiation

Which erythroid differentiation (K562 cells [2]; wild type K562, 0.1 to 10 mM in medium) does the source give for O=C(O)CC(O)C(=O)O (centres unmarked) [malate] here?
Its erythroid differentiation is “could not induce erythroid differentiation”.

Which “rescue of ME2 knockdown cell cycle phenotype (decreased proliferation)” value (K562 cells [4]; ME2 knockdown K562 cells) does the source give for O=c1ccn([C@@H]2O[C@H](CO)[C@@H](O)[C@H]2O)c(=O)[nH]1 [uridine] here?
Its value is “nor were we able to rescue”.

And the “rescue of differentiation mediated by ME2 depletion” value (K562 cells [2]; ME2 knockdown K562 cells)?
Its value is “could not rescue the differentiation”.
